Experimental data reported in US20050009840A1 (SUGEN, INC., priority 2003, published 2005).

Target: T1, HGFR (Homo sapiens, UniProt P08581)
T1 construct: purchased Upstate 14-526
Assay: HGFR continuous-coupled spectrophotometric assay
Type: biochemical
Conditions: at 1 pM; Table 7, library procedure 42; read-out: % Inhibition (percent c-MET inhibition)

T1 sequence (P08581 974-1390 limits assumed): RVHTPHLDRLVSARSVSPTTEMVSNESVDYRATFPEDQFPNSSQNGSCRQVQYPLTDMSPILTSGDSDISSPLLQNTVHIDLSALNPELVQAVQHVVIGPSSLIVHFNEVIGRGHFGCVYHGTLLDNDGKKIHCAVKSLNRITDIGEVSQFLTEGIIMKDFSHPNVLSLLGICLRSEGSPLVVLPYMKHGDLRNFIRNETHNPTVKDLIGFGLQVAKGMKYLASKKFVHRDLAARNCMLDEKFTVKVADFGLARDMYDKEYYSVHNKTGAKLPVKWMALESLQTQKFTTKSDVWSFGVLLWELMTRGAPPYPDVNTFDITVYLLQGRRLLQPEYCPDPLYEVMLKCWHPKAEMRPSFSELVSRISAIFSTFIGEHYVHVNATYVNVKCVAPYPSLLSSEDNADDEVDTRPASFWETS

| inhibition at 1 pM | Structure (SMILES) |
| --- | --- |
| 19% | Nc1ncc(-c2ccc(C(=O)N3CCC(N4CCCC4)CC3)cc2)cc1OCc1ccc(F)c(F)c1 |
| 32% | CC(C)c1ccc(COc2cc(-c3ccc(C(=O)N4CCC(N5CCCC5)CC4)cc3)cnc2N)cc1 |
| 22% | Nc1ncc(-c2ccc(C(=O)N3CCC(N4CCCC4)CC3)cc2)cc1OCc1ccccc1-c1ccccc1 |
| 20% | Nc1ncc(-c2ccc(C(=O)N3CCC(N4CCCC4)CC3)cc2)cc1OCc1ccc(OC(F)(F)F)cc1 |
| 14% | Nc1ncc(-c2ccc(C(=O)N3CCC(N4CCCC4)CC3)cc2)cc1OCc1cc(F)cc(F)c1 |
| 24% | Nc1ncc(-c2ccc(C(=O)N3CCC(N4CCCC4)CC3)cc2)cc1OCc1cccc(F)c1F |
| 10% | COc1cc(COc2cc(-c3ccc(C(=O)N4CCC(N5CCCC5)CC4)cc3)cnc2N)cc(OC)c1OC |
| 19% | Nc1ncc(-c2ccc(C(=O)N3CCC(N4CCCC4)CC3)cc2)cc1OCc1cc(Cl)cc(Cl)c1 |
| 34% | Nc1ncc(-c2ccc(C(=O)N3CCC(N4CCCC4)CC3)cc2)cc1OCc1cccc(Oc2ccccc2)c1 |
| 40% | Nc1ncc(-c2ccc(C(=O)N3CCC(N4CCCC4)CC3)cc2)cc1OCc1cccc(Cl)c1Cl |
| 26% | Cc1ccc(COc2cc(-c3ccc(C(=O)N4CCC(N5CCCC5)CC4)cc3)cnc2N)cc1Cl |
| 26% | Nc1ncc(-c2ccc(C(=O)N3CCC(N4CCCC4)CC3)cc2)cc1OCc1cc(Cl)ccc1Cl |
| 9% | Nc1ncc(-c2ccc(C(=O)N3CCC(N4CCCC4)CC3)cc2)cc1OCc1nc(CS(=O)(=O)c2ccccn2)no1 |
| 14% | Nc1ncc(-c2ccc(C(=O)N3CCC(N4CCCC4)CC3)cc2)cc1OCc1cc(-c2c(Cl)cccc2Cl)no1 |
| 9% | CC(=O)N(c1ccc(C)cc1)c1nc(COc2cc(-c3ccc(C(=O)N4CCC(N5CCCC5)CC4)cc3)cnc2N)cs1 |
| 10% | CC(Oc1cc(-c2ccc(C(=O)N3CCC(N4CCCC4)CC3)cc2)cnc1N)c1ccccc1 (stereo not drawn) |
| 13% | Nc1ncc(-c2ccc(C(=O)N3CCC(N4CCCC4)CC3)cc2)cc1OCc1cccc(OC(F)(F)F)c1 |
| 8% | Cc1cc(COc2cc(-c3ccc(C(=O)N4CCC(N5CCCC5)CC4)cc3)cnc2N)nc(-c2ccc(C(F)(F)F)cn2)n1 |
| 24% | Nc1ncc(-c2ccc(C(=O)N3CCC(N4CCCC4)CC3)cc2)cc1OCc1cc(F)ccc1Br |

| inhibition at 1 pM | Structure (SMILES) |
| --- | --- |
| 14% | Cc1cc(C)cc(COc2cc(-c3ccc(C(=O)N4CCC(N5CCCC5)CC4)cc3)cnc2N)c1 |
| 15% | COc1cccc(COc2cc(-c3ccc(C(=O)N4CCC(N5CCCC5)CC4)cc3)cnc2N)c1 |
| 15% | Nc1ncc(-c2ccc(C(=O)N3CCC(N4CCCC4)CC3)cc2)cc1OCc1ccc(Cl)cc1 |
| 28% | Nc1ncc(-c2ccc(C(=O)N3CCC(N4CCCC4)CC3)cc2)cc1OCc1cccc(Cl)c1F |
| 26% | Nc1ncc(-c2ccc(C(=O)N3CCC(N4CCCC4)CC3)cc2)cc1OCc1ccc(Cl)c(Cl)c1 |
| 12% | Nc1ncc(-c2ccc(C(=O)N3CCC(N4CCCC4)CC3)cc2)cc1OCc1cc(F)c(F)cc1F |
| 15% | Nc1ncc(-c2ccc(C(=O)N3CCC(N4CCCC4)CC3)cc2)cc1OCc1ccc(F)c(F)c1F |
| 12% | Nc1ncc(-c2ccc(C(=O)N3CCC(N4CCCC4)CC3)cc2)cc1OCc1ccc(C(F)(F)F)cc1C(F)(F)F |
| 30% | Nc1ncc(-c2ccc(C(=O)N3CCC(N4CCCC4)CC3)cc2)cc1OCc1c(F)ccc(F)c1F |
| 10% | Nc1ncc(-c2ccc(C(=O)N3CCC(N4CCCC4)CC3)cc2)cc1OCc1ccc(C(F)(F)F)cc1 |
| 28% | Cc1cccc(COc2cc(-c3ccc(C(=O)N4CCC(N5CCCC5)CC4)cc3)cnc2N)c1F |
| 21% | CC(Oc1cc(-c2ccc(C(=O)N3CCC(N4CCCC4)CC3)cc2)cnc1N)c1ccccc1C(F)(F)F (stereo not drawn) |
| 9% | CC(=O)Nc1nc(COc2cc(-c3ccc(C(=O)N4CCC(N5CCCC5)CC4)cc3)cnc2N)cs1 |
| 11% | Nc1ncc(-c2ccc(C(=O)N3CCC(N4CCCC4)CC3)cc2)cc1OCc1ccccc1CS(=O)(=O)c1ccccc1 |
| 4% | Nc1ncc(-c2ccc(C(=O)N3CCC(N4CCCC4)CC3)cc2)cc1OC1OC(=O)c2ccccc21 (stereo not drawn) |
| 41% | Nc1ncc(-c2ccc(C(=O)N3CCC(N4CCCC4)CC3)cn2)cc1OCc1ccc(-c2csnn2)cc1 |
| 21% | Nc1ncc(-c2ccc(C(=O)N3CCN(C4CCCC4)CC3)cc2)cc1OCc1cc(F)cc2c1OCOC2 |
| 14% | Nc1ncc(-c2ccc(C(=O)N3CCC(N4CCCC4)CC3)cc2)cc1OCc1cc(C(F)(F)F)cc(C(F)(F)F)c1 |
| 13% | Nc1ncc(-c2ccc(C(=O)N3CCC(N4CCCC4)CC3)cc2)cc1OCc1ccc(F)c(C(F)(F)F)c1 |

| inhibition at 1 pM | Structure (SMILES) |
| --- | --- |
| 12% | Nc1ncc(-c2ccc(C(=O)N3CCC(N4CCCC4)CC3)cc2)cc1OCc1cc(F)cc(C(F)(F)F)c1 |
| 31% | Nc1ncc(-c2ccc(C(=O)N3CCC(N4CCCC4)CC3)cc2)cc1OCc1c(F)cccc1C(F)(F)F |
| 19% | Nc1ncc(-c2ccc(C(=O)N3CCC(N4CCCC4)CC3)cc2)cc1OCc1cc(F)c(F)c(F)c1 |
| 27% | Nc1ncc(-c2ccc(C(=O)N3CCC(N4CCCC4)CC3)cc2)cc1OCc1ccccc1OC(F)F |
| 25% | Nc1ncc(-c2ccc(C(=O)N3CCC(N4CCCC4)CC3)cc2)cc1OCc1ccc(C(F)(F)F)c(F)c1 |
| 31% | Nc1ncc(-c2ccc(C(=O)N3CCC(N4CCCC4)CC3)cc2)cc1OCc1ccc(Br)cc1F |
| 45% | Nc1ncc(-c2ccc(C(=O)N3CCC(N4CCCC4)CC3)cc2)cc1OCc1cc(Br)cc(Br)c1 |
| 11% | CS(=O)(=O)c1ccc(COc2cc(-c3ccc(C(=O)N4CCC(N5CCCC5)CC4)cc3)cnc2N)cc1 |
| 77% | N#Cc1ccccc1-c1ccc(COc2cc(-c3ccc(C(=O)N4CCC(N5CCCC5)CC4)cc3)cnc2N)cc1 |
| 11% | Nc1ncc(-c2ccc(C(=O)N3CCC(N4CCCC4)CC3)cc2)cc1OCc1ccc(C(=O)NCCN2CCOCC2)cc1 |
| 9% | CN(C)CCNC(=O)c1ccc(COc2cc(-c3ccc(C(=O)N4CCC(N5CCCC5)CC4)cc3)cnc2N)cc1 |
| 12% | Nc1ncc(-c2ccc(C(=O)N3CCC(N4CCCC4)CC3)cc2)cc1OCc1ccc(C(=O)N2CCNC(c3ccccc3)C2)cc1 (stereo not drawn) |
| 7% | Nc1ncc(-c2ccc(C(=O)N3CCC(N4CCCC4)CC3)cc2)cc1OCc1ccc(C(=O)NCc2ccccn2)cc1 |
| 10% | Nc1ncc(-c2ccc(C(=O)N3CCC(N4CCCC4)CC3)cc2)cc1OCc1cccc(C(=O)Nc2cccnc2)c1 |
| 14% | Nc1ncc(-c2ccc(C(=O)N3CCC(N4CCCC4)CC3)cc2)cc1OCc1cccc(C(=O)NCc2cccnc2)c1 |
| 10% | Nc1ncc(-c2ccc(C(=O)N3CCC(N4CCCC4)CC3)cc2)cc1OCc1cccc(C(=O)NCc2ccncc2)c1 |
| 12% | Nc1ncc(-c2ccc(C(=O)N3CCC(N4CCCC4)CC3)cc2)cc1OCc1cccc(C(=O)NCCc2ccccn2)c1 |
| 13% | Nc1ncc(-c2ccc(C(=O)N3CCC(N4CCCC4)CC3)cc2)cc1OCc1cccc(C(=O)NC2CCN(Cc3ccccc3)C2)c1 (stereo not drawn) |
| 11% | Nc1ncc(-c2ccc(C(=O)N3CCC(N4CCCC4)CC3)cc2)cc1OCc1ccc(C(=O)NCCc2ccccn2)cc1 |
